Laboratory results reported in patent US20100297145A1, “Apoptosis promoter, cell proliferation inhibitor, prophylactic/therapeutic agent for cancer, screening method for the promoter, inhibitor or agent” (priority 2005, published 2010).

Key:
Assay type in all cases: cell-based, human
DU145/PCA-1 [1] = test: Cell growth of PCA-1-overexpressing cell line with EGF stimulation (MTS reagent); conditions: EGF 10 ng/ml, 36 hours, serum-free, pretreatment with ERK inhibitor
Description: (§1) The human prostate cancer cell line DU145 (purchased from ATCC) was cultured in RPMI medium (in the presence of 10% serum) and used. The human PCA-1 gene was cleaved out from a PCA-1 vector, and this was inserted into pIRES/Neo, which is a vector that encodes the neomycin resistance gene (hereinafter pIRES/Neo/PCA-1). […] For control, a clone (DU145/Neo) incorporating an empty vector, and cultured under the same conditions, was used.
Experiments were performed using the MTS [(3-(4,5-dimethylthiazol-2-yl)-5-(3-carboxymethoxyphenyl)-2-(4-sulphonyl)-2H-tetrazolium, inner salt] reagent (Promega, Tokyo, Japan) in accordance with the attached protocol.
Cell growth for 36 hours under serum-free conditions was examined.

DU145/PCA-1 [2] = test: Paclitaxel-induced apoptosis quantified by flowcytometry
Description: as §1
A control cell line (DU145/Neo) and DU145/PCA-1 were stimulated with paclitaxel (100 nM); 48 hours later, apoptosis was quantified using flowcytometry.

DU145 [3] = test: WST-1 method, growth of DU145 transfected with siRNA
Description: (§2) The human prostate cancer cell line DU145 (purchased from ATCC) was cultured in RPMI1640 medium (in the presence of 10% fetal bovine serum) and used.
(§3) DU145 was transiently transfected with siRNAs against PCA-1 ([…] (SEQ ID NO:4), […] (SEQ ID NO:5), […] (SEQ ID NO:6)) using DharmaFECT 1 (GE Healthcare Bioscience.). Expression suppression and knockdown effects were confirmed by real-time PCR and PCA-1 quantitative ELISA method. Control siRNA ([…] (SEQ ID NO:7)) was purchased from GE Healthcare Bioscience.
Two days after DU145 was transfected with siRNA, the cells were harvested, and 100 μl of the cells were sown to a 96-well plate at 1×10^4/ml. Thereafter, 10 μl of a 1:9 mixture of a 1-methoxy PMS (1-methoxy-5-methylphenazinium.methylsulfate) solution and a WST-1 (2-(4-Iodophenyl)-3-(4-nitrophenyl)-5-(2,4-disulfophenyl)-2H-tetrazolium, monosodium salt) solution was added to each well every 24 hours; 1 hour later, absorbance was measured at 450 nm. As the control wavelength, 630 nm was used. The day of the start of transfection is designated as day 0.

DU145 [4] = test: Apoptosis analysis (propidium iodide, flowcytometer) of DU145 transfected with siRNA
Description: as §2, §3
After DU145 was transfected with PCA-1 siRNA, the cells were harvested and fixed with ethanol. Thereafter, the cells were stained with propidium iodide, and the ratio of apoptosis cells was analyzed using a flowcytometer.

DU145/PCA-1 [5] = test: TRAIL-induced apoptosis analyzed by flowcytometry; conditions: TRAIL 50 ng/ml, 24 hours
Description: as §1
TRAIL is drawing attention as a new-generation anticancer agent for prostate cancer, and it has been reported that FLIP acts suppressively on the mechanism therefor.

N#CC(=C(/N)Sc1ccccc1N)/C(C#N)=C(\N)Sc1ccccc1N [U0126]
effect of pretreatment on EGF-stimulated growth increase of DU145/PCA-1 (DU145/PCA-1 [1]): inhibited (cancelled)
effect on the paclitaxel-induced apoptosis inhibitory effect of PCA-1 (DU145/PCA-1 [2]; DU145/PCA-1, paclitaxel 100 nM, with ERK inhibitor): cancelled

Control siRNA: Control siRNA (auccgcgcgauaguacgua (SEQ ID NO:7)) purchased from GE Healthcare Bioscience (AUCCGCGCGAUAGUACGUA; listed as RNA, chemistry not given here)
absorbance relative to the absorbance on day 3 written as 1 (DU145 [3]; DU145, Day 3): 1
absorbance relative to the absorbance on day 3 written as 1 (DU145 [3]; DU145, Day 4): 1.99
absorbance relative to the absorbance on day 3 written as 1 (DU145 [3]; DU145, Day 5): 3.98
absorbance relative to the absorbance on day 3 written as 1 (DU145 [3]; DU145, Day 6): 7.25
absorbance relative to the absorbance on day 3 written as 1 (DU145 [3]; DU145, Day 7): 11.91
absorbance relative to the absorbance on day 3 written as 1 (DU145 [3]; DU145, Day 8): 12.90
growth of DU145 over time (in words) (DU145 [3]; DU145 transfected cells, WST-1): remarkable growth
ratio of apoptosis cells (DU145 [4]; DU145, Day 2): 0.98%
ratio of apoptosis cells (DU145 [4]; DU145, Day 3): 1.96%
ratio of apoptosis cells (DU145 [4]; DU145, Day 4): 5.00%
ratio of apoptosis cells (DU145 [4]; DU145, Day 5): 1.88%

CC(=O)O[C@H]1C(=O)[C@@]2(C)[C@H]([C@H](OC(=O)c3ccccc3)[C@]3(O)C[C@H](OC(=O)[C@H](O)[C@@H](NC(=O)c4ccccc4)c4ccccc4)C(C)=C1C3(C)C)[C@]1(OC(C)=O)CO[C@@H]1C[C@@H]2O [paclitaxel]
paclitaxel-induced apoptosis in DU145/PCA-1 compared with control strain (DU145/Neo) (DU145/PCA-1 [2]; paclitaxel 100 nM, 48 hours): significantly inhibited

B1: TRAIL: tumor necrosis factor-related apoptosis-inducing ligand (protein, UniProt P50591 1-281, looked up)
Tumor necrosis factor ligand …: MAMMEVQGGPSLGQTCVLIVIFTVLLQSLCVAVTYVYFTNELKQMQDKYSKSGIACFLKEDDSYWDPNDEESMNSPCWQVKWQLRQLVRKMILRTSEETISTVQEKQQNISPLVRERGPQRVAAHITGTRGRSNTLSSPNSKNEKALGRKINSWESSRSGHSFLSNLHLRNGELVIHEKGFYYIYSQTYFRFQEEIKENTKNDKQMVQYIYKYTSYPDPILLMKSARNSCWSKDAEYGLYSIYQGGIFELKENDRIFVSVTNEHLIDMDHEASFFGAFLVG
apoptosis induction in DU145/PCA-1 compared with control (DU145/Neo) (DU145/PCA-1 [5]): significantly inhibited
